Structures are written as SMILES. Some results are limits rather than exact numbers.

The target in this assay is T1, DCAF1 WD40 domain (residues 1077-1390) (Homo sapiens, UniProt Q9Y4B6).
T1 construct: DCAF1 WD40 domain (residues 1077-1390)
T1 sequence (Q9Y4B6 1077-1390): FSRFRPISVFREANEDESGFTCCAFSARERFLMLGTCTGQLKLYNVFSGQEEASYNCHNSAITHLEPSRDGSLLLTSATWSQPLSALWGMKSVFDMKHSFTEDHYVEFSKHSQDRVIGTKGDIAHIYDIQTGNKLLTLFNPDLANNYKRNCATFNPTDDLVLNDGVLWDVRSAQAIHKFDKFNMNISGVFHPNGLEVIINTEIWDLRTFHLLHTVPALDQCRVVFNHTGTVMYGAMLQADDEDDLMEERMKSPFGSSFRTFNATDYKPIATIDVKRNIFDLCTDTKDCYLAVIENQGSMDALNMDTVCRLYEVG
Briefly: DCAF1 binding assay by SPR (Biacore 8K+), DCAF1-3 KD. The conditions noted are these: 25 °C, read-out: DCAF1-3 SPR (KD). A general note: SPR reads the build-up and loss of mass on a sensor chip optically.
A word on the Kd: it is the concentration at which binding is half-saturated. `c1cc(N2CCOCC2)cc(N[C@@H]2CCCN(c3ccc4c(c3)CCC4)C2)n1` [I-872]: the Kd is > 200 µM.

In the case of `Fc1cccc(N2CCCC(N3CCc4c(N5CC6CC(C6)C5)ccnc43)C2)c1` (centres unmarked) [I-790], the Kd was < 10 µM.

Consider `O=C1NCCc2c1cccc2N1CCC[C@@H](Nc2cc(N3CCOCC3)ccn2)C1` [I-778], for which the Kd is > 200 µM.

With `NC(=O)c1cccc(N2CCC[C@@H](Nc3cc(N4CCOCC4)ccn3)C2)c1` [I-775], the equilibrium dissociation constant (Kd) was > 200 µM.

Regarding `Cc1sc2c(c1C)C(c1ccc(Cl)cc1)=N[C@@H](CC(=O)NCCOCCOCCOCCOCCOCC(=O)c1c(-c3c(F)ccc(F)c3C)c(C(=O)N[C@@H](CC(N)=O)c3cccc(Cl)c3)cn1C)c1nnc(C)n1-2` [I-912], the dissociation constant (Kd) was < 10 µM.

For `N#CCCN(c1cc(N2CCOCC2)ccn1)[C@@H]1CCCN(c2cccc(F)c2)C1` [I-289], the Kd was > 200 µM.

In the case of `CC(=O)Nc1cccnc1N1CCC[C@@H](Nc2cc(N3CCOCC3)ccn2)C1` [I-430], the dissociation constant Kd is > 200 µM.

In the case of `C[C@H](CC(N)=O)NC(=O)c1cn[nH]c1-c1ccccc1F` [I-132], the equilibrium dissociation constant (Kd) was > 200 µM.

For `C=CC(=O)N(C)CCN(C)c1ccnc(N[C@@H]2CCCN(c3cccc(F)c3)C2)c1` [I-448], the Kd was > 200 µM.

In the case of `Fc1cccc(N2CCC[C@@H](n3cnc4nccc(N5CCOCC5)c43)C2)c1` [I-494], the dissociation constant Kd is > 200 µM.

For the compound `C=CC(=O)N1CCC1C(=O)N1CCN(c2ccnc(N[C@@H]3CCCN(c4cccc(F)c4)C3)c2)CC1` (some centres unmarked) [I-464], the Kd is > 200 µM.

With `Cc1cccc(F)c1-c1c[nH]cc1C(=O)N[C@@H](CC(N)=O)c1cccc(Cl)c1` [I-592], the dissociation constant (Kd) is < 10 µM.

On to `COc1ccc(N2CCOCC2)cc1N[C@@H]1CCCN(c2cccc(F)c2)C1` [I-121], for which the Kd was > 200 µM.

In the case of `C=CC(=O)N1CCC(c2n[nH]cc2C(=O)N[C@@H](CC(N)=O)c2cccc(Cl)c2)=N1` [I-471], the dissociation constant (Kd) was > 200 µM.

With `CO/N=C(/c1ccccc1)c1[nH]cc(C(=O)N[C@@H](CC(N)=O)c2cccc(Cl)c2)c1-c1c(F)ccc(F)c1C` [I-758], the equilibrium dissociation constant (Kd) was < 10 µM.

Take `c1cc(N2CCC[C@@H](Nc3nccc(N4CCOCC4)n3)C2)c2ccncc2c1` [I-55]: the Kd is 100 to 200 µM.

For the compound `C#Cc1cccc(F)c1-c1[nH]ncc1C(=O)N[C@@H](CC(N)=O)c1cccc(Cl)c1` [I-591], the Kd was < 10 µM.

In the case of `c1ccc2c(c1)nc(N1CCC[C@@H](Nc3cc(N4CCOCC4)ccn3)C1)c1nnnn12` [I-423], the Kd is > 200 µM.

Regarding `NC(=O)C[C@H](NC(=O)c1c[nH]c(C(=O)c2ccccc2)c1-c1c(F)cc(Cl)cc1F)c1cccc(Cl)c1` [I-946], the dissociation constant (Kd) is < 10 µM.

As to `C[C@H]1CCCC[C@H]1c1[nH]ncc1C(=O)N[C@@H](CC(N)=O)c1cccc(Cl)c1` [I-723], the dissociation constant Kd was < 10 µM.

`Clc1cc(N2CCC[C@@H](Nc3cc(N4CCOCC4)ccn3)C2)nc(C2CC2)n1` [I-679]: the equilibrium dissociation constant (Kd) is > 200 µM.

`O=c1cc(N2CCC[C@@H](Nc3cc(N4CCCCC4)ccn3)C2)cc[nH]1` [I-945]: the Kd lay within 10 to 100 µM.

For `Fc1cccc(N2CCC[C@@H](Nc3ncc(N4CCOCC4)s3)C2)c1` [I-328], the dissociation constant (Kd) was > 200 µM.

For `Nc1cnc(N2CCCCC2)nc1N[C@@H]1CCCN(c2cccc(F)c2)C1` [I-1001], the Kd was in the range of 10 to 100 µM.

`NC(=O)C[C@H](NC(=O)c1c[nH]nc1-c1cc(-c2nnn[nH]2)ccc1F)c1cccc(Cl)c1` [I-293]: the Kd was > 200 µM.

Take `Cc1sc2c(c1C)C(c1ccc(Cl)cc1)=N[C@@H](CC(=O)NCCOCCOCCOCCOCCOCCOCCn1cc(C(=O)N[C@@H](CC(N)=O)c3cccc(Cl)c3)c(-c3ccccc3F)n1)c1nnc(C)n1-2` [I-889]: the Kd was > 200 µM.

As for `Cc1ccc(Cl)cc1[C@@H](CC(N)=O)NC(=O)c1cn[nH]c1-c1ccccc1F` [I-584], the dissociation constant Kd was 10 to 100 µM.

For the compound `Cn1cnc(C[C@H](O)C(=O)N[C@@H](CC(N)=O)c2cccc(Cl)c2)c1` [I-443], the Kd was > 200 µM.

`COc1ccc(F)cc1N1CCC[C@@H]2[C@H]1CCN2c1cc(N2CCCCC2)ccn1` [I-796]: the Kd was in the range of 10 to 100 µM.

Turning to `Cc1cccc(F)c1-c1[nH]ncc1C(=O)N[C@H](CC(N)=O)c1cc(Cl)cc(Cl)c1` [I-735], the dissociation constant Kd was in the range of 100 to 200 µM.

For `O=C(c1cc(N2CCCCC2)ccn1)[C@@H]1CCCN(c2cccc(F)c2)C1` [I-612], the Kd is > 200 µM.

Consider `c1ccc2nc(N3CCC[C@@H](Nc4cc(N5CCOCC5)ncn4)C3)ccc2c1` [I-397], for which the Kd is > 200 µM.

As for `Fc1cccc(N2CCC[C@@H](Nc3cc([C@@H]4CCCCN4)ccn3)C2)c1` [I-124], the Kd is > 200 µM.

`Cn1nccc1-c1[nH]ncc1C(=O)N[C@@H](CC(N)=O)c1cccc(Cl)c1` [I-157]: the equilibrium dissociation constant (Kd) was 10 to 100 µM.

On to `NC(=O)C[C@H](NC(=O)c1[nH]nc(Nc2ccccc2)c1-c1ccccc1F)c1cccc(Cl)c1` [I-169], for which the Kd was in the range of 10 to 100 µM.

Regarding `C=CC(=O)N(C)CCCCC1CCN(c2ccnc(N3CC[C@@H]4[C@H]3CCCN4c3cccc(F)c3)c2)CC1` [I-850], the dissociation constant (Kd) is < 10 µM.

Take `CC1=C(c2[nH]ncc2C(=O)N[C@@H](CC(N)=O)c2cccc(Cl)c2)CCCC1` [I-610]: the equilibrium dissociation constant (Kd) was < 10 µM.

Consider `NCCCCCCCCCCCCCCCCCCCCC(=O)c1[nH]cc(C(=O)N[C@@H](CC(N)=O)c2cccc(Cl)c2)c1-c1ccccc1F` [I-670], for which the equilibrium dissociation constant (Kd) was > 200 µM.

On to `NCC(=O)N1CC2(CCCN(c3cccc(F)c3)C2)Nc2cc(N3CCCCC3)ncc21` (centres unmarked) [I-1020], for which the Kd lay within 10 to 100 µM.

For `c1cncc(-c2csc(N3CCC[C@@H](Nc4cc(N5CCOCC5)ccn4)C3)n2)c1` [I-412], the Kd is > 200 µM.

Consider `C=CC(=O)N1CC[C@H]1C(=O)N1CCN(c2ccnc(N[C@@H]3CCCN(c4cccc(F)c4)C3)c2)CC1` [I-479], for which the equilibrium dissociation constant (Kd) is > 200 µM.

Turning to `Fc1cccc(N2CCC[C@@H](Nc3nc(N4CCOCC4)c[nH]3)C2)c1` [I-326], the Kd is > 200 µM.

As for `Cc1sc2c(c1C)C(c1ccc(Cl)cc1)=N[C@@H](CC(=O)NCCOCCOCCOCCOCCOCCC1CCN(c3ccnc(N4CC[C@@H]5[C@H]4CCCN5c4cccc(F)c4)c3)CC1)c1nnc(C)n1-2` [I-891], the dissociation constant Kd is < 10 µM.

In the case of `COCCOCC[C@H]1CCCN(c2ccnc(N3CC[C@@H]4[C@H]3CCCN4c3cccc(F)c3)c2)C1` [I-713], the Kd lay within 10 to 100 µM.

As to `Fc1cccc(N2CC[C@@H]3CCCc4cnc(N5CCOCC5)cc4N[C@H]3C2)c1` [I-363], the Kd was > 200 µM.

Turning to `NC(=O)C[C@H](NC(=O)c1cnn(Cc2ccccc2)c1-c1ccccc1F)c1cccc(Cl)c1` [I-140], the equilibrium dissociation constant (Kd) is > 200 µM.

Consider `c1ccc(-c2cc(N3CCC[C@@H](Nc4cc(N5CCOCC5)ccn4)C3)ccn2)nc1` [I-437], for which the Kd was 10 to 100 µM.

`COCCc1ccc(-c2[nH]ncc2C(=O)N[C@@H](CC(N)=O)c2cccc(Cl)c2)c(F)c1` [I-511]: the equilibrium dissociation constant (Kd) was < 10 µM.

With `Cc1cccc(F)c1-c1[nH]ncc1C(=O)N[C@H](CC(N)=O)c1cc(F)cc(Cl)c1` [I-749], the Kd is < 10 µM.

In the case of `NC(=O)C[C@H](NC(=O)c1cn[nH]c1N1CCCCC1)c1cccc(Cl)c1` [I-159], the Kd is > 200 µM.

Turning to `Cc1c(F)ccc(F)c1-c1c(C(=O)N[C@@H](CC(=O)N2CC[C@H](O)C2)c2cccc(Cl)c2)cn(C)c1C#N` [I-1004], the Kd is < 10 µM.

For the compound `O=C(O)c1cc2c(N3CCC[C@@H](Nc4cc(N5CCOCC5)ccn4)C3)cccc2s1` [I-855], the Kd was > 200 µM.

Take `c1cncc(N2CCC[C@@H](Nc3cc(N4CCOCC4)ncn3)C2)c1` [I-12]: the Kd is > 200 µM.

(Values after patent publication US20260373266A1, “PROTEIN DEGRADERS AND USES THEREOF” (KYMERA THERAPEUTICS, INC., priority 2022, published 2026).)
